Laboratory results: patent US11169138B2, “Nanopores with internal protein adaptors” (priority 2015, dated 2021)

Experiments:
SBD1 = SBD1 (Lactococcus lactis, UniProt Q9CES5); assay: Asparagine binding to SBD1 inside type I ClyA-AS nanopore
Description: The interaction of SBD1 with asparagine was sampled using type I ClyA-AS nanopores. ClyA-AS (C87A/L99Q/E103G/F166Y/I203V/C285S/K294R/H307Y). In 150 mM NaCl and 15 mM Tris-HCl (pH 7.5), the addition of 74 nM of SBD1 to the cis compartment of Type I ClyA-AS induced transient current blockades at negative applied potentials (trans). […] Every 3.5±0.1 s^−1 (mean±S.E., n=212) the current switched to Level II (Ires %=66.8±0.4%, N=5) with a lifetime of 109±1 ms (mean±S.E., n=340). The protein blockades released spontaneously after 4.2±1.8 s (mean±S.E., n=291).
The dissociation constant was determined by titrating the substrate and plotting the relative closed population (CL/(O+CL)), determined from the area of the all point current histogram, versus the concentration. […] The closing and opening rate constants were determined from the inverse of the open and closed state lifetimes respectively and were plotted versus the asparagine concentration. The closing rate was linearly dependent on the substrate concentration and the slope of the linear fit gave the kclosing=1.2×10^7 s^−1 M^−1.

[1] = molecular target: T1, AlkB-Fe^++ (E. coli AlkB demethylase) (Escherichia coli, UniProt P05050); assay: Ligand binding to AlkB-Fe++ confined inside ClyA-AS nanopore, single-channel ionic current recording; details: −60 mV; for L2B ΔIRES % (ligand-induced current enhancement from L2): 150 mM NaCl, 15 mM Tris HCl pH 8.0, 28° C.; for L2B ΔIRES % (ligand-induced current enhancement from L2) / mean duration (toff) of ligand-induced events: ligand cis; for koff −60 mV / kon −60 mV: pH 8.0, 28° C.; for kon −60 mV: slope of event frequency vs concentration
T1 construct: made in house; host or cells: E. cloni EXPRESS BL21(DE3) E. coli
T1 sequence (P05050 with tags, fused parts or gaps): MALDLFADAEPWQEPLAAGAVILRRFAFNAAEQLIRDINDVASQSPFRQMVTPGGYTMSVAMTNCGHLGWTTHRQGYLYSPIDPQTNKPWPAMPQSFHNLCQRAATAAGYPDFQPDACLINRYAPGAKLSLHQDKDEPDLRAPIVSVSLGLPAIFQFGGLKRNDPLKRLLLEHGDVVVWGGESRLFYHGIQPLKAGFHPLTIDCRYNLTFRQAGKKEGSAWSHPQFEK
Description: (§1) The applied potential refers to the potential of the trans electrode. ClyA-AS nanopores were inserted into lipid bilayers from the cis compartment, which was connected to the ground electrode. The two compartments were separated by a 25 μm thick polytetrafluoroethylene film (Goodfellow Cambridge Limited) containing an orifice of ˜100 μm in diameter. The aperture was pretreated with ˜5 μl of 10% hexadecane in pentane and a bilayer was formed by the addition of ˜10 μL of 1,2-diphytanoyl-sn-glycero-3-phosphocholine (DPhPC) in pentane (10 mg/mL) to both electrophysiology chambers. Typically, the addition of 0.01-0.1 ng of oligomeric ClyA-AS to the cis compartment (0.5 mL) was sufficient to obtain a single channel. […] Electrical recordings were carried out in 150 mM NaCl, 15 mM Tris.HCl pH 8.0 (AlkB experiments) or 150 mM NaCl, 15 mM Tris.HCl pH 7.5 (DHFR experiments). The temperature of the recording chamber was maintained at 28° C. by water circulating through a metal case in direct contact with the bottom and sides of the chamber.
(§2) Electrical signals from planar bilayer recordings were amplified using an Axopatch 200B patch clamp amplifier (Axon Instruments) and digitized with a Digidata 1440 A/D converter (Axon Instruments). Data were recorded by using the Clampex 10.4 software (Molecular Devices) and the subsequent analysis was carried out with the Clampfit software (Molecular Devices). Electrical recordings were performed in 150 mM NaCl, 15 mM Tris.HCl pH 8.0 (AlkB) or pH 7.5 (DHFR) by applying a 2 kHz low-pass Bessel filter and a 10 kHz sampling rate. For further analysis traces were filtered digitally with a Bessel (8-pole) low-pass filter with a 50 Hz cut-off. Residual current values (IRES%) were calculated from blocked pore current values (IB) and open pore current values (IO) as IRES %=100*IB/IO. IB and IO were determined from Gaussian fits to all point current histograms (0.05 pA bin size) for at least 15 individual protein blockades. ΔIRES % values were calculated from IRES % using propagation of errors.
(§3) Current transitions from level 1 were analyzed with the “single-channel search” function in Clampfit. The detection threshold to collect the ligand-induced events for AlkB was set to 4 pA and events shorter than 10 ms were ignored. […] The resulting event dwell times (toff) and the time between events (ton) were binned together as cumulative distributions and fitted to a single exponential to retrieve the ligand-induced lifetimes (τoff) and the ligand-induced event frequencies (f=1/τon). The process of event collection was monitored manually. For AlkB, final values of τon and τoff were based on average values derived from at least 3 single channel experiments at each concentration. Each experiment analysed more than 8 AlkB blockades. At the low ligand concentrations (0.2 mM) about 100 ligand-binding events were measured. Otherwise more than 150 events were collected. […] Subsequently, the ton values were binned together as cumulative distributions and fitted to a single exponential fit to retrieve characteristic τon values. The values for koff represented in FIG. 2b and FIG. 4b were determined by taking the average±standard deviations of 1/toff of at least 3 single channel experiments. The values of the association rate constants (kon) were determined from the slope of the linear regression curves calculated from the dependency of the event frequencies (f=1/τon) on the ligand concentration (OriginLab, FIGS. 2b and 4b). Graphs were made with Origin (OriginLab Corporation) or Clampfit software (Molecular Devices).
9, 872-877; Bleijlevens, B. et al. (2012) Biochem. 2012, 51, 3334-3341].

N120D-AlkB-Fe^++ = molecular target: T2, N120D-AlkB-Fe^++ (Escherichia coli, UniProt P05050, N120D); assay: Ligand binding to N120D AlkB mutant confined inside ClyA-AS nanopore; set-up: species or system E. coli; details: 7.2 mM 2-OG, N=4
T2 construct: additional alanine after the starting methionine (cloning residue, between Met1 and Leu2) (N); Strep-tag via glycine-serine-alanine linker (C); made in house; host or cells: pT7-SC1 plasmid; expression host not restated for the mutant
T2 sequence (P05050 1-216 N120D): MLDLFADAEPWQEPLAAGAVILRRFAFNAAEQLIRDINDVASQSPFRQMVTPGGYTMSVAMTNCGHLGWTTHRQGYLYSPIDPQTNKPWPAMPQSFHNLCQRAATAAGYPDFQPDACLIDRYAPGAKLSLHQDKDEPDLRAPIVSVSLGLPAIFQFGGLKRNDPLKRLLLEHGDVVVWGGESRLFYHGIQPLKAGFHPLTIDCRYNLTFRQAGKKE

DHFRtag:MTX = molecular target: T3, DHFRtag:MTX (Escherichia coli, UniProt P0ABQ4, C152S/C85A); assay: Ligand binding to DHFRtag:MTX complex confined inside ClyA-AS nanopore, single-channel recording; set-up: species or system E. coli
T3 construct: Met-Ala-Ser-Ala (N); made in house; host or cells: E. cloni EXPRESS BL21(DE3) E. coli
T3 sequence (P0ABQ4 1-159 C85A/C152S): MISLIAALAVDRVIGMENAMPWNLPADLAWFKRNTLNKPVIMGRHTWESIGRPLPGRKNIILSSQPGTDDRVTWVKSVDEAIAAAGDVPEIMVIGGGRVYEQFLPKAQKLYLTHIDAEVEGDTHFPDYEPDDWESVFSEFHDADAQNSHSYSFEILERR
Description: as §1, §2, §3

Work on `NC(=O)C[C@H](N)C(=O)O` [asparagine] yielded a Kd (SBD1) of 470 ± 30 nM, a kon (SBD1; pH 7.5, read-out: kclosing) of 1.2e+07 M⁻¹ s⁻¹ and a koff (SBD1; pH 7.5, read-out: kopening) of 9.4 s⁻¹.
For `O=C(O)CCC(=O)C(=O)O` [2-OG, 2-oxoglutarate], the “L2B ΔIRES % (ligand-induced current enhancement from L2)” value [1] was “+1.7 ± 1.2%”, the “mean duration (toff) of ligand-induced events” value [1] was 1.7 ± 0.5 s and the “koff −60 mV” value [1] was 0.66 ± 0.33 s⁻¹. The “kon −60 mV” value [1] was 1.8 ± 0.3 × 10^3 s^−1 M^−1 and the “current transitions in N120D-AlkB-Fe++ blockades” value (N120D-AlkB-Fe^++) was “did not induce current transitions”.
In the case of `NC(=O)c1ccc[n+]([C@@H]2O[C@H](COP(=O)([O-])OP(=O)(O)OC[C@H]3O[C@@H](n4cnc5c(N)ncnc54)[C@H](OP(=O)(O)O)[C@@H]3O)[C@@H](O)[C@H]2O)c1` [NADP+], the “DHFRtag:MTX blockades not responding to the ligand” value (DHFRtag:MTX; NADP+ added in trans) is reported as “Approximately 45%”, the “τM:N+ (dwell of NADP+ events)” value (DHFRtag:MTX; −90 mV, NADP+ trans) is reported as 102 ± 11 ms and the “koff −90 mV” value (DHFRtag:MTX; −90 mV, pH 7.5, 28° C.) is reported as 10 ± 1 s⁻¹. The “kon −90 mV” value (DHFRtag:MTX; −90 mV, pH 7.5, 28° C.) was 2.1 ± 0.3 × 10^6 s^−1 M^−1 and the “L2B ΔIRES %” value (DHFRtag:MTX; −90 mV, pH 7.5, 28° C., ligand trans, from L2) was “+4.7 ± 0.9%”.
With `O=C(O)CCC(=O)O` [SUC, succinate] the “L2B ΔIRES % (ligand-induced current enhancement from L2)” value [1] was “+2.1 ± 1.0%”, the “mean duration (toff) of ligand-induced events” value [1] was 0.061 ± 0.011 s and the “koff −60 mV” value [1] was 16.6 ± 2.6 s⁻¹. The “kon −60 mV” value [1] was 9.2 ± 1.3 × 10^2 s^−1 M^−1.
